Values quoted from earlier work as cited in patent publication US9907754B2 (VECTURA LIMITED, priority 2013, dated 2018).

Columns and labels:
[1] = henderson-hasselbalch (1908)
[2] = EFSA; no indications of inhalation toxicity or intolerability

**Q.** With OC[C@@H](O)[C@@H](O)[C@H](O)[C@H](O)CO [Mannitol] as the compound, how does the “water pick up, % of mass” value (humidity >70% RH) read?
**A.** 10%

**Q.** What about the moisture pick up (relative humidity as high as 70%) of the same compound?
**A.** less than 1%

**Q.** Which results are given for NCCS(=O)(=O)O [Taurine, 2-aminoethanesulfonic acid]?
**A.** pKa of the sulphur-hydryl group [1]: 1.49; tolerable dose [2]: > 1000 mg/kg/day
